Molecular target: T1, human TNF-alpha (Homo sapiens, UniProt P01375)
T1 construct: purchased R & D Diagnostics
Assay: Apoptosis induced by human TNF-alpha on murine L929 cells (MTT survival)
Type: cell-based
Conditions: compound 10 μM, human TNF-alpha 0.150 ng/ml, 24 hours, % survival based on control cells without TNF
Protocol: The compounds are dissolved in DMSO to be used in vitro or in vivo by oral route, and in Cremophor® for their use in vivo by intraperitoneal route.
The cells were cultured in DMEM medium with 10% fcetal calf serum added. 4×10^4 cells in 100 μl of culture medium were exposed to human TNF-alpha (R & D Diagnostics) at 0.150 ng/ml for 24 hours in 96-well plates, and the tested compound was added at a final concentration of 100 μM or 10 μM. A solution of MTT dye was added (100 μl at 0.5 mg/ml) to each well over two hours in order to measure cell survival. The absorbance was measured at 570 nm using a BMG Fluostar microplate reader. The inhibitory activity of the products was expressed as a calculated % survival based on the control cells without the addition of TNF.

T1 sequence (P01375 77-233 limits assumed): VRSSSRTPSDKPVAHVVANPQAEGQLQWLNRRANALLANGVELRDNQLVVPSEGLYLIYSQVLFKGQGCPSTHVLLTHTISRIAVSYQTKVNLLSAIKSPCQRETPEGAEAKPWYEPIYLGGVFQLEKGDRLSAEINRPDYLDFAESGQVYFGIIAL

3-(4-fluorophenyl)-4-oxo-4H-chromen-7-ylN-[(4-methylphenyl)sulphonyl]-beta-alaninate [Compound 24]
% Inhibition 10 μM: 50.26%

CCOc1ccc(S(=O)(=O)Nc2cc3c(C(C)=O)c(C)oc3c3ccccc23)cc1 [16 (1), N-(3-acetyl-2-methylnaphthho[1,2-b]furan-5-yl)-4-ethoxybenzene sulphonamide]
% Inhibition 10 μM: 80.40%

COc1ccc(S(=O)(=O)N(CC(=O)N2CCN(c3ccccc3OC)CC2)Cc2ccccc2)cc1C [32 (3), N-benzyl-4-methoxy-N-{2-[4-(2-methoxyphenyl)-1-piperazinyl]-2-oxoethyl}-3-methylbenzenesulphonamide]
% Inhibition 10 μM: 69.73%

COc1ccccc1N1CCN(C(=O)CN(Cc2ccccc2)S(=O)(=O)c2ccc(Cl)cc2)CC1 [66 (14), N-benzyl-4-chloro-N-{2-[4-(2-methoxyphenyl)-1-piperazinyl]-2-oxoethyl}benzenesulphonamide]
% Inhibition 10 μM: 67.4%

COc1ccccc1N1CCN(C(=O)CN(Cc2ccccc2)S(=O)(=O)c2ccc(Br)cc2)CC1 [67 (15), N-benzyl-4-bromo-N-{2-[4-(2-methoxyphenyl)-1-piperazinyl]-2-oxoethyl}benzenesulphonamide]
% Inhibition 10 μM: 61.8%

Cc1ccc(S(=O)(=O)N(CC(=O)N2CCN(Cc3ccccc3)CC2)c2ccc(C)c(C)c2)cc1 [72 (21), N-[2-(4-benzyl-1-piperazinyl)-2-oxoethyl]-N-(3,4-dimethylphenyl)-4-methylbenzenesulphonamide]
% Inhibition 10 μM: 53.4%

Cc1c(Cl)cccc1N(CC(=O)N1CCN(Cc2ccccc2)CC1)S(=O)(=O)c1ccccc1 [73 (23), N-[2-(4-benzyl-1-piperazinyl)-2-oxoethyl]-N-(3-chloro-2-methylphenyl)benzenesulphonamide]
% Inhibition 10 μM: 44.8%

COc1ccc(S(=O)(=O)Nc2cc3c(C(C)=O)c(C)oc3cc2C)cc1 [Compound 1, N-(3-acetyl-2,6-dimethyl-1-benzofuran-5-yl)-4-methoxybenzene sulphonamide]
% Inhibition 10 μM: 71.15%

COC(=O)c1c(C)oc2ccc(NS(=O)(=O)c3ccc(OC)cc3)cc12 [Compound 2, methyl 5-{[(4-methoxyphenyl)sulphonyl]amino}-2-methyl-1-benzofuran-3-carboxylate]
% Inhibition 10 μM: 57.51%

COC(=O)c1c(C)oc2ccc(NS(=O)(=O)c3ccc(C)cc3)cc12 [Compound 3, methyl 2-methyl-5-{[(4-methylphenyl)sulphonyl]amino}-1-benzofuran-3-carboxylate]
% Inhibition 10 μM: 48.09%

Cc1ccc(-c2nnc(NCc3ccccc3)c3ccccc23)cc1S(=O)(=O)NCC1CCCO1 (stereo not shown) [Compound 23, 5-[4-(benzylamino)-1-phthalazinyl]-2-methyl-N-(tetrahydro-2-furanylmethyl)benzenesulphonamide]
% Inhibition 10 μM: 44.74%

COc1ccc(NC(=O)CN(Cc2cccc(Cl)c2)S(=O)(=O)c2ccc(C)cc2)c(OC)c1 [Compound 33, N˜2˜-(3-chlorobenzyl)-N˜1˜-(2,4-dimethoxyphenyl)-N˜2˜-[(4-methylphenyl)sulphonyl]glycinamide]
% Inhibition 10 μM: 52.4%

COc1ccc(OC)c(N(CC(=O)Nc2cccc(C(C)=O)c2)S(=O)(=O)c2ccc(C)cc2)c1 [Compound 34, N˜1˜-(3-acetylphenyl)-N-˜2˜-(2,5-dimethoxyphenyl)-N˜2˜-[(4-methylphenyl)sulphonyl]glycinamide]
% Inhibition 10 μM: 42.26%

COc1ccccc1N1CCN(C(=O)CN(Cc2ccc(F)cc2)S(=O)(=O)c2ccc(Cl)cc2)CC1 [Compound 71, 4-chloro-N-(4-fluorobenzyl)-N-{2-[4-(2-methoxyphenyl)-1-piperazinyl]-2-oxoethyl}benzenesulphonamide]
% Inhibition 10 μM: 53.6%

CC1CCN(C(=O)CN(Cc2ccc(Cl)c(Cl)c2)S(=O)(=O)c2ccc(Cl)cc2)CC1 [Compound 74, 4-chloro-N-(3,4-dichlorobenzyl)-N-[2-(4-methyl-1-piperidinyl)-2-oxoethyl]benzenesulphonamide]
% Inhibition 10 μM: 45.6%

COc1ccccc1N1CCN(C(=O)CN(Cc2ccccc2)S(=O)(=O)c2ccc(F)cc2)CC1 [Compound 75, N-benzyl-4-fluoro-N-{2-[4-(2-methoxyphenyl)-1-piperazinyl]-2-oxoethyl}benzenesulphonamide]
% Inhibition 10 μM: 44.7%

Cc1ccc(S(=O)(=O)N(CC(=O)N2CCN(Cc3ccccc3)CC2)c2cc(C)cc(C)c2)cc1 [Compound 76, N-[2-(4-benzyl-1-piperazinyl)-2-oxoethyl]-N-(3,5-dimethylphenyl)-4-methylbenzenesulphonamide]
% Inhibition 10 μM: 35.5%

COc1ccc(S(=O)(=O)N(CC(=O)N2CCN(c3ccccc3F)CC2)Cc2ccccc2)cc1 [Compound 77, N-benzyl-N-{2-[4-(2-fluorophenyl)-1-piperazinyl]-2-oxoethyl}-4-methoxybenzenesulphonamide]
% Inhibition 10 μM: 32.8%

COc1ccc(S(=O)(=O)N(CC(=O)N2CCc3ccccc3C2)c2cc(C)cc(C)c2)cc1OC [Compound 78, N-[2-(3,4-dihydro-2(1H)-isoquinolinyl)-2-oxoethyl]-N-(3,5-dimethylphenyl)-3,4-d imethoxybenzenesulphonamide]
% Inhibition 10 μM: 38.4%

COc1ccc(S(=O)(=O)N(CC(=O)N2CCN(c3ccccc3)CC2)c2ccc(C)cc2)cc1OC [Compound 79, 3,4-dimethoxy-N-(4-methylphenyl)-N-[2-oxo-2-(4-phenyl-1-piperazinyl)ethyl]benzenesulphonamide]
% Inhibition 10 μM: 36.8%

Cc1ccc(CN(CC(=O)N2CCN(c3ccc(F)cc3)CC2)S(=O)(=O)c2ccccc2)cc1 [Compound 80, N-{2-[4-(4-fluorophenyl)-1-piperazinyl]-2-oxoethyl}-N-(4-methylbenzyl)benzenesulphonamide]
% Inhibition 10 μM: 34.3%

Cc1ccc(S(=O)(=O)N(CC(=O)N2CCC(Cc3ccccc3)CC2)c2ccc(F)cc2)cc1 [Compound 81, N-[2-(4-benzyl-1-piperidinyl)-2-oxoethyl]-N-(4-fluorophenyl)-4-methylbenzenesulphonamide]
% Inhibition 10 μM: 34.8%

Cc1ccc(S(=O)(=O)N(CC(=O)N2CCN(Cc3ccccc3)CC2)c2ccccc2C)cc1 [Compound 82, N-[2-(4-benzyl-1-piperazinyl)-2-oxoethyl]-4-methyl-N-(2-methylphenyl)benzenesulphonamide]
% Inhibition 10 μM: 34.6%

COc1ccc(S(=O)(=O)N(CC(=O)N2CCN(c3ccc(F)cc3)CC2)Cc2ccccc2)cc1OC [Compound 84, N-benzyl-N-{2-[4-(4-fluorophenyl)-1-piperazinyl]-2-oxoethyl}-3,4-dimethoxybenzenesulphonamide]
% Inhibition 10 μM: 33.6%

N-(1,2-dihydro-5-acenaphthhylenyl)-2.4,6-trimethylbenzenesulphonamide [Compound 26]
% Inhibition 10 μM: 43.84%

N-(1′,2-dihydroxy-1.2′-binaphthhalen-4′-yl)-4-methoxybenzene-sulphonamide [Compound 21]
% Inhibition 10 μM: 53.45%

N-[2-(4-benzyl-1-piperazinyl)-2-oxoethyl]-N-(3-chlorophenyl)-4-methyl benzenesulphonamide [65 (13)]
% Inhibition 10 μM: 61.4%

N-[2-(4-benzyl-1-piperazinyl)-2-oxoethyl]-N-(4-chlorophenyl)-4-methyl benzenesulphonamide [68 (16)]
% Inhibition 10 μM: 56.2%

N-benzyl-4-methyl-N-[2-oxo-2-(4-phenyl-1-piperazinyl)pethyl]benzenesulphonamide [69 (18)]
% Inhibition 10 μM: 61.3%

N-{2-[4-(2-fluorophenyl)-1-piperazinyl]-2-oxoethyl}-N-(4-methylbenzyl) benzenesulphonamide [70 (19)]
% Inhibition 10 μM: 54.0%

N-{2-[4-(diphenylmethyl)-1-piperazinyl]-2-oxoethyl}-N,4-dimethyl benzenesulphonamide [Compound 85]
% Inhibition 10 μM: 32.1%

Reference: patent publication US8975399B2, “Benzenesulfon amide-compound treatment of a pathological condition linked to an excessive effect of TNF” (priority 2010, dated 2015)
